Where “and” joins values, the source holds several entries; their conditions need not be identical. Equal entries are not always repeated. Entries after “also recorded” stand apart in the source; their conditions may differ. Where two headings read alike, the source gives them in different places.
What was measured:
Nav1.7 = Nav1.7 (Homo sapiens, UniProt Q15858)
[1] = system: IMR-32 cells grown in the absence of RA (inward currents); type: cell-based, human
[2] = system: IMR-32 cells grown in the presence of RA (fast transient inward currents); test: Whole cell voltage clamp of inward currents, IMR-32 cells grown in RA; type: cell-based, human
Procedure: The endogenous voltage gated Na currents expressed in IMR-32 cells grown in the presence or absence of 1 μM RA were measured using standard whole cell voltage clamp techniques (Hamill et al. (1981). The whole cell patch clamp technique was used to record voltage-activated currents from IMR-32 cells maintained for two or more days on 12 mm glass coverslips in the presence or absence of RA (1 μM). Cells were visualized using a Nikon Diaphot 300 with DIC Nomarski optics. The standard physiological saline (1 Ca tyrodes (“Tyrodes”) contains: 130 mM NaCl, 4 mM KCl, 1 mM CaCl2, 1.2 mM MgCl2, and 10 mM hemi-Na-HEPES (pH 7.3, 295–300 mOsm as measured using a Wescor 5500 vapor-pressure (Wescor, Inc., Logan, Utah)). Recording electrodes are fabricated from borosilicate capillary tubing (R6; Garner Glass, Claremont, Calif.), the tips are coated with dental periphery wax (Miles Laboratories, South Bend, Ind.), and have resistances of 1 to 2 MΩ when containing an intracellular saline designed to block outward currents: 140 mM CsCl, 0.483 mM CaCl2, 2 mM MgCl2, 10 mM HEPES free acid and 1 mM K4-BAPTA (100 nM free Ca^+2); pH 7.4, with dextrose added to achieve 290 mOsm). Current and voltage signals are detected and filtered at 2 kHz with an Axopatch 1D patch-clamp amplifier (Axon Instruments, Foster City, Calif.), digitally recorded with a DigiData 1200B laboratory interface (Axon Instruments) and PC compatible computer system and stored on magnetic disk for off-line analysis. Data acquisition and analysis are performed with PClamp software.
The total membrane capacitance (Cm) was determined as the difference between the maximum current after a 30 mV hyperpolarizing voltage ramp from −100 mV (generated at a rate of 10 mV/ms) and the steady state current at the final potential (−130 mV) (Dubin et al. (1999)).
Families of voltage-gated inward currents were obtained using a standard P/−4 protocol from −100 mV. Depolarizing voltage steps in increments of 10 mV were applied from a holding potential of −100 mV. Steady state inactivation was elicited by measuring the peak current at 0 mV after a 500 msec pre-pulse voltage between −140 and −20 mV in increments of 10 mV.

Nav1.3 = Nav1.3 (Homo sapiens, UniProt Q9NY46); type: cell-based
Chain of Nav1.3 (Q9NY46 whole entry, looked up): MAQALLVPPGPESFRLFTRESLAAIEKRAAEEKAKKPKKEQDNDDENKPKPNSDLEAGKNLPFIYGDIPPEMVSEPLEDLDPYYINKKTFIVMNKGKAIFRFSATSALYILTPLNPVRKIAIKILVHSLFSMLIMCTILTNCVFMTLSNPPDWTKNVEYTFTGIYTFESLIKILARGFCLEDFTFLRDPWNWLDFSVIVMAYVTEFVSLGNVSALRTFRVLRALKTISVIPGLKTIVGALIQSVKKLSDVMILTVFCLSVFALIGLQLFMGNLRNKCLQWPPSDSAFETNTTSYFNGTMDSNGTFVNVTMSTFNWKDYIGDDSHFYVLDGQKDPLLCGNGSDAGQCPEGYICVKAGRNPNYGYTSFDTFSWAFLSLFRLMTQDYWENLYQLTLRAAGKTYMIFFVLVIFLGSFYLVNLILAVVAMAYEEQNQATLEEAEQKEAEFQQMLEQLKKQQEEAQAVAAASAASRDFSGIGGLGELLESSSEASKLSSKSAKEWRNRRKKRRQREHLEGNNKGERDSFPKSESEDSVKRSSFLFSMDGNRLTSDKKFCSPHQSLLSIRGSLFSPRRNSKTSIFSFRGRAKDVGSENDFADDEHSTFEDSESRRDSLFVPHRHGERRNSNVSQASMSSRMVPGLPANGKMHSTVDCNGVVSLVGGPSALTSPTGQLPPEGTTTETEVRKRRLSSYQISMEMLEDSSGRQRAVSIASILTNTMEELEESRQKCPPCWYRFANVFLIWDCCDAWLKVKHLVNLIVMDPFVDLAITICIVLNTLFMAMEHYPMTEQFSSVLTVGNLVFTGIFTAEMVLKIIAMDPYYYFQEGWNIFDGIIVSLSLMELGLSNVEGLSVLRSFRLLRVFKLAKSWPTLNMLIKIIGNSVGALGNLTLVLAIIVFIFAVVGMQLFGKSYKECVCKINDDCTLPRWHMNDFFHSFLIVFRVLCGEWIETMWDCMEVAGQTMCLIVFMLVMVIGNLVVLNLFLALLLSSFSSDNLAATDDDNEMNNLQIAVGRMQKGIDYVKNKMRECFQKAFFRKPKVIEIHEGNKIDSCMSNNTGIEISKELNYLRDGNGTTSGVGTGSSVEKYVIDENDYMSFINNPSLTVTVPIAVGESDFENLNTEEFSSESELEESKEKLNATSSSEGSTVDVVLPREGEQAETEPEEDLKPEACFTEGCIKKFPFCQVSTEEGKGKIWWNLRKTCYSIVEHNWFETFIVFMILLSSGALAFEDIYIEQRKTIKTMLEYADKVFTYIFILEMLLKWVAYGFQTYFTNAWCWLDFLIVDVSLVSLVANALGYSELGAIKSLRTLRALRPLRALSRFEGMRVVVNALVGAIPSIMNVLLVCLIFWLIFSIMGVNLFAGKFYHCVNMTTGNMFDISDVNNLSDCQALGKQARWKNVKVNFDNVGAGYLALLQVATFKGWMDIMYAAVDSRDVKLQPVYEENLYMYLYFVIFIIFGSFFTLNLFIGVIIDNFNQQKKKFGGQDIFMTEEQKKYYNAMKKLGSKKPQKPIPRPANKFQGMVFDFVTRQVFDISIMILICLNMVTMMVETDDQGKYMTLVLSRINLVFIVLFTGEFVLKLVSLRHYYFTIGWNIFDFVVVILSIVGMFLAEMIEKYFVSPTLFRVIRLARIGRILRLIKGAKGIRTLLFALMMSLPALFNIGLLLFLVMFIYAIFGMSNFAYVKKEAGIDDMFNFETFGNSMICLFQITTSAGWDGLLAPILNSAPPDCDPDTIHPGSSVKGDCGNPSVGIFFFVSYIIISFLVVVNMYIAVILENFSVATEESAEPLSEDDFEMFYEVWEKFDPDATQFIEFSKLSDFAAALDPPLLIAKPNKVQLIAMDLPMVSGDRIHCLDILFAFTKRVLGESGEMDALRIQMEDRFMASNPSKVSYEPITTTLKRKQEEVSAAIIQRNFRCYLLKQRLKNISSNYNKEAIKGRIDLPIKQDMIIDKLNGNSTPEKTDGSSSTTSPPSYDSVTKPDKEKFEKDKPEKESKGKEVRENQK

Nav = type: cell-based, human
[3] = system: TTX-R inward current (calcium currents); test: Whole cell voltage clamp, block of TTX-R inward current in IMR-32 cells; type: cell-based, human; conditions: 5 μM

Chain of Nav1.7 (Q15858 whole entry, looked up): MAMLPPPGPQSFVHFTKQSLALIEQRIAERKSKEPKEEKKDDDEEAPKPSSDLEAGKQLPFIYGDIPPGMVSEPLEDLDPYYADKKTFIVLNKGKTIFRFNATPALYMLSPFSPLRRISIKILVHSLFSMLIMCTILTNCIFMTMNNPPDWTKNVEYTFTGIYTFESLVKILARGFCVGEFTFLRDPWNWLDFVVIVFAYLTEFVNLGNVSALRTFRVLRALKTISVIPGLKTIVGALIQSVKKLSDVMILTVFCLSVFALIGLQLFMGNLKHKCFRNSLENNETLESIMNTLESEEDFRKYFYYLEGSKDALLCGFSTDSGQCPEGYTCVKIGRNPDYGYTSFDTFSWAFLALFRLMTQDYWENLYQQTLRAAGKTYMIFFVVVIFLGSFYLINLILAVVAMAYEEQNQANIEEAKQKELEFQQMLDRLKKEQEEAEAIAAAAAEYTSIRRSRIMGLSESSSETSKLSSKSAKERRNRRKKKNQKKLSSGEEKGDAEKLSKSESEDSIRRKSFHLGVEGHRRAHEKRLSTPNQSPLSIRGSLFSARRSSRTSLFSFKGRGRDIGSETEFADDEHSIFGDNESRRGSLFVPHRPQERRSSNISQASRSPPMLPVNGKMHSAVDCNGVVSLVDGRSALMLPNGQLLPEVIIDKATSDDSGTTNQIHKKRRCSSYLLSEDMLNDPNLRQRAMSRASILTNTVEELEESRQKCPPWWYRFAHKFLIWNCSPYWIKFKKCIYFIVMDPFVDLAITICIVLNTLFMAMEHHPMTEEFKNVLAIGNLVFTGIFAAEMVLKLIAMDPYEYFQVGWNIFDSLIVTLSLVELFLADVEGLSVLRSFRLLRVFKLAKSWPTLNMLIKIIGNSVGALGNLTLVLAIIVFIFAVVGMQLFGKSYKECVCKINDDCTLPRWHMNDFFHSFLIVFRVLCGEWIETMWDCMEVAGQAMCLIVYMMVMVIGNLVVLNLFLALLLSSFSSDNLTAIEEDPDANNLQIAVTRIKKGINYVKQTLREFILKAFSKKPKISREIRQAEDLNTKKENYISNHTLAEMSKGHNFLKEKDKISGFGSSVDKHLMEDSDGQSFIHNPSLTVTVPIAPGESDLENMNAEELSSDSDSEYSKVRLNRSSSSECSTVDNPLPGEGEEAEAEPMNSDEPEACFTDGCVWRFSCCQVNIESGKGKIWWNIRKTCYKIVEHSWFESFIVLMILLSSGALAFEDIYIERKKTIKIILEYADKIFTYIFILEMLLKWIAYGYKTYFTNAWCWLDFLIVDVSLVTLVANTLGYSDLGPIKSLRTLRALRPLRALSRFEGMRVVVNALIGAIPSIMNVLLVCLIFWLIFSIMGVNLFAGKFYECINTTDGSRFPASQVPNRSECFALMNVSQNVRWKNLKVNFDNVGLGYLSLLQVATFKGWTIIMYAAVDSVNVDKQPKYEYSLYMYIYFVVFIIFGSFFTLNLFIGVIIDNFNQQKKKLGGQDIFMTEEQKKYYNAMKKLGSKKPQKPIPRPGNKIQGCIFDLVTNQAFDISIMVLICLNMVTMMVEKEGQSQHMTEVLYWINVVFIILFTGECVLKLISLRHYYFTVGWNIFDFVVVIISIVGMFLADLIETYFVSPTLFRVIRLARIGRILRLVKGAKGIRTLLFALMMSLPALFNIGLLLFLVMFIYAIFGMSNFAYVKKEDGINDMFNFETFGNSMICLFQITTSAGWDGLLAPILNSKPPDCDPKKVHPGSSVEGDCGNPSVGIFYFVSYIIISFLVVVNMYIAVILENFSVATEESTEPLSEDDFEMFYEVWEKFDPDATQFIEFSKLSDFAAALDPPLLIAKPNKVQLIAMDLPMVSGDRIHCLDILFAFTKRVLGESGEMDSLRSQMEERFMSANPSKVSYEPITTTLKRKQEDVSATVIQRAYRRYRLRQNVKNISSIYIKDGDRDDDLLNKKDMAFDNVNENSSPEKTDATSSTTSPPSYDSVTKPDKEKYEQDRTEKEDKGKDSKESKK

NC1=N[C@H](O)[C@H]2[C@H]3O[C@]4(O)O[C@@H]([C@@H](O)[C@@]2(N1)[C@@H]4O)[C@]3(O)CO [TTX, tetrodotoxin]
block of veratridine induced signal (Nav1.7): nearly completely blocks | proportion of the veratridine-induced response blocked (Nav1.7): 82% and 80% | steepness of the dose response relationship (Nav1.7): 1.0 and 1.5 | TTX-S component of inward currents, proportion of total current [1]: 17+/−6% | block of inward currents [1]: only partially blocked | TTX-S component of inward currents, proportion of total current [2]: 36+/−7% | block of inward currents [2]: 92% | effect on inward currents [2]: little effect | block of veratridine-induced depolarization / fluorescence signal (Nav1.3): completely suppressed; also recorded: completely blocked; also recorded: nearly completely blocks | proportion of the veratridine-induced response blocked (Nav1.3): 90% and 88% and 89% | steepness of the dose response relationship (Nav1.3): 0.76 and 0.89 and 0.79 | IC50 (Nav1.3; read-out: IC50, block of veratridine-stimulated sodium influx): 3.3 nM | IC50 (Nav1.3; read-out: concentration to half block the veratridine-induced increase in fluorescence (IC50)): 2.8 nM | effect on FRET signal (Nav): dose dependent decreases

COCC(=O)O[C@]1(CCN(C)CCCc2nc3ccccc3[nH]2)CCc2cc(F)ccc2[C@@H]1C(C)C [mibefradil]
block of the TTX-R current [3]: in part

CC1=C(/C=C/C(C)=C\C=C\C(C)=C\C(=O)O)C(C)(C)CCC1 [RA, 9-cis RA]
peak inward currents ([2]; cells grown for more than two weeks in RA, tested in Tyrodes, n=24, vs -43.3 without RA, p<0.02): −75.3+/−10.6 pA/pF
